Results reported in PMC4890880 (ACS infectious diseases, 2016).
Read-outs that look alike come from different tables or passages of the source.

Assays:
[1] = system: Plasmodium berghei (Pb-Luc) exoerythrocytic-stage parasites; details: for IC50: read-out: PbLuc_IC50; for normalised signal at concentration 10 (first series): concentration 10, first series of dose columns; for normalised signal at concentration 10 (second series): concentration 10, second series of dose columns
HepG2-A16-CD81EGFP cells = details: for IC50: read-out: Tox_IC50, HepG2 cytotoxicity
[2] = 2nd round, maximal inhibition in dose series
[3] = sheet "2nd round", Broad compounds, dose response top concentration 10
[4] = first series of dose-response columns, fraction of control
[5] = first series, fraction of control
[6] = sheet 2nd round, Broad compounds, dose response
[7] = second series of dose-response columns, fraction of control
[8] = second series, fraction of control
[9] = sheet 2nd round, maximal inhibition in dose response

N#C[C@@H]1[C@H](c2ccccc2C2=CCCC2)[C@H](CO)N1C(=O)C1CCOCC1 [BRD-K53180201-001-01-6]
PbLuc_max_inhibition (%) [1, 2]: 21%
normalized signal at 0.000508053 (first series) ([1]; concentration 0.000508053, first replicate series, fraction of control): 1.0312
normalized signal at 0.000508053 (second series) ([1]; concentration 0.000508053, second replicate series, fraction of control): 0.7931
normalized signal at 0.00152416 (first series) ([1]; concentration 0.00152416, first replicate series, fraction of control): 1.021
normalized signal at 0.00152416 (second series) ([1]; concentration 0.00152416, second replicate series, fraction of control): 0.9501
normalized signal at 0.00457247 (first series) ([1]; concentration 0.00457247, first replicate series, fraction of control): 0.8781
normalized signal at 0.00457247 (second series) ([1]; concentration 0.00457247, second replicate series, fraction of control): 0.9105
normalized signal at 0.0137174 (first series) ([1]; concentration 0.0137174, first replicate series, fraction of control): 0.9372
normalized signal at 0.0137174 (second series) ([1]; concentration 0.0137174, second replicate series, fraction of control): 0.8749
normalized signal at 0.0411523 (first series) ([1]; concentration 0.0411523, first replicate series, fraction of control): 0.9703
normalized signal at 0.0411523 (second series) ([1]; concentration 0.0411523, second replicate series, fraction of control): 1.2503
normalized signal at 0.123457 (first series) ([1]; concentration 0.123457, first replicate series, fraction of control): 0.9995
normalized signal at 0.123457 (second series) ([1]; concentration 0.123457, second replicate series, fraction of control): 1.034
normalized signal at 0.37037 (first series) ([1]; concentration 0.37037, first replicate series, fraction of control): 0.9827
normalized signal at 0.37037 (second series) ([1]; concentration 0.37037, second replicate series, fraction of control): 0.991
normalized signal at 1.11111 (first series) ([1]; concentration 1.11111, first replicate series, fraction of control): 1.008
normalized signal at 1.11111 (second series) ([1]; concentration 1.11111, second replicate series, fraction of control): 0.8686
normalized signal at 3.33333 (first series) ([1]; concentration 3.33333, first replicate series, fraction of control): 0.9463
normalized signal at 3.33333 (second series) ([1]; concentration 3.33333, second replicate series, fraction of control): 0.9769
normalized signal at 10 (first series) ([1]; concentration 10, first replicate series, fraction of control): 1.181
normalized signal at 10 (second series) ([1]; concentration 10, second replicate series, fraction of control): 1.122
IC50 ([1]; 2nd round, Broad DOS compounds, unit not printed (dose series head 10 to 0.000508053)): > 10 µM
Tox_max_inhibition (%) (HepG2-A16-CD81EGFP cells; [2]): 7%
IC50 (HepG2-A16-CD81EGFP cells; 2nd round, unit inferred): > 10 µM

C[C@H](CO)N1C[C@H](C)[C@@H](CN(C)S(=O)(=O)c2ccc(F)cc2)OCCCC[C@H](C)Oc2ccc(N(C)C)cc2C1=O [BRD-K31169989-001-01-4]
normalised signal at concentration 0.000508053 (first series) [1]: 0.9593
normalised signal at concentration 0.000508053 (second series) [1]: 1.075
normalised signal at concentration 0.00152416 (first series) [1]: 0.7705
normalised signal at concentration 0.00152416 (second series) [1]: 0.9043
normalised signal at concentration 0.00457247 (first series) [1]: 0.8601
normalised signal at concentration 0.00457247 (second series) [1]: 0.8661
normalised signal at concentration 0.0137174 (first series) [1]: 0.7407
normalised signal at concentration 0.0137174 (second series) [1]: 1.136
normalised signal at concentration 0.0411523 (first series) [1]: 1.052
normalised signal at concentration 0.0411523 (second series) [1]: 0.8649
normalised signal at concentration 0.123457 (first series) [1]: 0.7251
normalised signal at concentration 0.123457 (second series) [1]: 0.9568
normalised signal at concentration 0.37037 (first series) [1]: 0.9029
normalised signal at concentration 0.37037 (second series) [1]: 0.9798
normalised signal at concentration 1.11111 (first series) [1]: 0.7471
normalised signal at concentration 1.11111 (second series) [1]: 0.8642
normalised signal at concentration 3.33333 (first series) [1]: 0.9659
normalised signal at concentration 3.33333 (second series) [1]: 0.7643
normalised signal at concentration 10 (first series) [1]: 0.5392
normalised signal at concentration 10 (second series) [1]: 0.607
IC50 [1, 3]: > 10 µM
PbLuc_max_inhibition (%) ([1]; sheet "2nd round"): 46%
IC50 (HepG2-A16-CD81EGFP cells; sheet "2nd round"): > 10 µM
Tox_max_inhibition (%) (HepG2-A16-CD81EGFP cells; sheet "2nd round"): 13%

CN(C)C(=O)c1ccc(-c2ccc([C@@H]3[C@H]4CN(C(=O)CC5CC5)CC(=O)N4[C@H]3CO)cc2)cc1 [BRD-K27481961-001-01-1]
normalized signal at concentration 10 [1, 4]: 1.04
normalized signal at concentration 0.000508053 [1, 5]: 0.88
normalized signal at concentration 0.00152416 [1, 5]: 0.98
normalized signal at concentration 0.00457247 [1, 5]: 1.01
normalized signal at concentration 0.0137174 [1, 5]: 0.77
normalized signal at concentration 0.0411523 [1, 5]: 0.91
normalized signal at concentration 0.123457 [1, 5]: 0.95
normalized signal at concentration 0.37037 [1, 5]: 0.98
normalized signal at concentration 1.11111 [1, 5]: 1.00
normalized signal at concentration 3.33333 [1, 5]: 0.94
IC50 [1, 6]: > 10 µM
normalized signal at concentration 10 [1, 7]: 0.89
normalized signal at concentration 0.000508053 [1, 8]: 1.05
normalized signal at concentration 0.00152416 [1, 8]: 1.04
normalized signal at concentration 0.00457247 [1, 8]: 0.89
normalized signal at concentration 0.0137174 [1, 8]: 0.89
normalized signal at concentration 0.0411523 [1, 8]: 0.96
normalized signal at concentration 0.123457 [1, 8]: 1.12
normalized signal at concentration 0.37037 [1, 8]: 1.12
normalized signal at concentration 1.11111 [1, 8]: 0.98
normalized signal at concentration 3.33333 [1, 8]: 1.20
PbLuc_max_inhibition (%) [1, 9]: 23%
IC50 (HepG2-A16-CD81EGFP cells; sheet 2nd round): > 10 µM
Tox_max_inhibition (%) (HepG2-A16-CD81EGFP cells; [9]): 6%

COc1ccc(CNC(=O)C[C@H]2CC[C@@H](NC(=O)CN(C)C)[C@H](CO)O2)cc1 [BRD-K05060234-001-01-0]
normalised signal at concentration 0.000508053 (first series) [1]: 0.9876
normalised signal at concentration 0.000508053 (second series) [1]: 0.95
normalised signal at concentration 0.00152416 (first series) [1]: 0.9394
normalised signal at concentration 0.00152416 (second series) [1]: 1.006
normalised signal at concentration 0.00457247 (first series) [1]: 1.108
normalised signal at concentration 0.00457247 (second series) [1]: 1.09
normalised signal at concentration 0.0137174 (first series) [1]: 1.028
normalised signal at concentration 0.0137174 (second series) [1]: 1.083
normalised signal at concentration 0.0411523 (first series) [1]: 1.04
normalised signal at concentration 0.0411523 (second series) [1]: 1.112
normalised signal at concentration 0.123457 (first series) [1]: 1.099
normalised signal at concentration 0.123457 (second series) [1]: 1.024
normalised signal at concentration 0.37037 (first series) [1]: 1.009
normalised signal at concentration 0.37037 (second series) [1]: 0.9385
normalised signal at concentration 1.11111 (first series) [1]: 1.251
normalised signal at concentration 1.11111 (second series) [1]: 1.0925
normalised signal at concentration 3.33333 (first series) [1]: 1.234
normalised signal at concentration 3.33333 (second series) [1]: 0.8448
normalised signal at concentration 10 (first series) [1]: 0.9455
normalised signal at concentration 10 (second series) [1]: 0.8679
IC50 [1, 3]: > 10 µM
PbLuc_max_inhibition (%) ([1]; sheet "2nd round"): 16%
IC50 (HepG2-A16-CD81EGFP cells; sheet "2nd round"): > 10 µM
Tox_max_inhibition (%) (HepG2-A16-CD81EGFP cells; sheet "2nd round"): 11%

C[C@@H]1CN([C@H](C)CO)C(=O)c2cc(N(C)C)ccc2O[C@@H](C)CCCCO[C@H]1CN(C)S(=O)(=O)c1ccc(F)cc1 [BRD-K72687327-001-01-6]
normalized signal at concentration 10 [1, 4]: 0.73
normalized signal at concentration 0.000508053 [1, 5]: 1.09
normalized signal at concentration 0.00152416 [1, 5]: 1.10
normalized signal at concentration 0.00457247 [1, 5]: 0.91
normalized signal at concentration 0.0137174 [1, 5]: 1.11
normalized signal at concentration 0.0411523 [1, 5]: 0.89
normalized signal at concentration 0.123457 [1, 5]: 0.84
normalized signal at concentration 0.37037 [1, 5]: 0.92
normalized signal at concentration 1.11111 [1, 5]: 0.97
normalized signal at concentration 3.33333 [1, 5]: 1.01
IC50 [1, 6]: > 10 µM
normalized signal at concentration 10 [1, 7]: 0.75
normalized signal at concentration 0.000508053 [1, 8]: 0.96
normalized signal at concentration 0.00152416 [1, 8]: 1.08
normalized signal at concentration 0.00457247 [1, 8]: 0.94
normalized signal at concentration 0.0137174 [1, 8]: 1.05
normalized signal at concentration 0.0411523 [1, 8]: 1.15
normalized signal at concentration 0.123457 [1, 8]: 0.88
normalized signal at concentration 0.37037 [1, 8]: 1.15
normalized signal at concentration 1.11111 [1, 8]: 1.02
normalized signal at concentration 3.33333 [1, 8]: 1.11
PbLuc_max_inhibition (%) [1, 9]: 27%
IC50 (HepG2-A16-CD81EGFP cells; sheet 2nd round): > 10 µM
Tox_max_inhibition (%) (HepG2-A16-CD81EGFP cells; [9]): 11%

C/C=C/c1ccc([C@H]2[C@@H](CO)N(CC3CCCCC3)[C@H]2CNC(C)C)cc1 [BRD-K63968422-001-01-5]
normalized signal at concentration 10 [1, 4]: 0.94
normalized signal at concentration 0.000508053 [1, 5]: 1.00
normalized signal at concentration 0.00152416 [1, 5]: 1.12
normalized signal at concentration 0.00457247 [1, 5]: 0.90
normalized signal at concentration 0.0137174 [1, 5]: 1.14
normalized signal at concentration 0.0411523 [1, 5]: 1.01
normalized signal at concentration 0.123457 [1, 5]: 0.97
normalized signal at concentration 0.37037 [1, 5]: 0.96
normalized signal at concentration 1.11111 [1, 5]: 0.99
normalized signal at concentration 3.33333 [1, 5]: 1.01
IC50 [1, 6]: > 10 µM
normalized signal at concentration 10 [1, 7]: 0.85
normalized signal at concentration 0.000508053 [1, 8]: 0.78
normalized signal at concentration 0.00152416 [1, 8]: 1.01
normalized signal at concentration 0.00457247 [1, 8]: 1.16
normalized signal at concentration 0.0137174 [1, 8]: 1.05
normalized signal at concentration 0.0411523 [1, 8]: 1.10
normalized signal at concentration 0.123457 [1, 8]: 1.05
normalized signal at concentration 0.37037 [1, 8]: 1.24
normalized signal at concentration 1.11111 [1, 8]: 1.02
normalized signal at concentration 3.33333 [1, 8]: 1.10
PbLuc_max_inhibition (%) [1, 9]: 22%
IC50 (HepG2-A16-CD81EGFP cells; sheet 2nd round): > 10 µM
Tox_max_inhibition (%) (HepG2-A16-CD81EGFP cells; [9]): 9%
